# Measurements taken from ChEMBL document CHEMBL4038272, “Synthesis and biological evaluation of novel podophyllotoxin-NSAIDs conjugates as multifunctional anti-MDR agents against resistant human hepatocellular carcinoma Bel-7402/5-FU cells” (Eur J Med Chem, 2017).
# The source made the active and inactive calls. No cut-off for these calls is given here.
# Columns and labels:
# Bel-7402 = test: Antiproliferative activity against human Bel7402 cells after 72 hrs by CCK-8 assay; assay type: functional, cell-based; details: Bel-7402, 72 h
# Bel7402/5-FU [1] = test: Antiproliferative activity against human Bel7402/5-FU cells after 72 hrs by CCK-8 assay; assay type: functional, cell-based
# L02 = test: Antiproliferative activity against human LO2 cells after 72 hrs by CCK-8 assay; assay type: cell-based; details: L02, 72 h
# [2] = Resistant factor, ratio of IC50 for human Bel7402/5-FU cells to IC50 for human Bel7402 cells; assay type: functional
# Bel7402/5-FU [3] = test: Cell cycle arrest in human Bel7402/5-FU cells assessed as accumulation at G1 phase at 0.05 uM after 48 hrs by propidium iodide staining based flow cytometry (reference value: 52.21%); assay type: functional
# Bel7402/5-FU [4] = test: Cell cycle arrest in human Bel7402/5-FU cells assessed as accumulation at S phase at 0.05 uM after 48 hrs by propidium iodide staining based flow cytometry (reference value: 12.62%); assay type: functional
# Bel7402/5-FU [5] = test: Cell cycle arrest in human Bel7402/5-FU cells assessed as accumulation at G2 phase at 0.05 uM after 48 hrs by propidium iodide staining based flow cytometry (reference value: 35.16%); assay type: functional
# Bel7402/5-FU [6] = test: Induction of apoptosis in human Bel7402/5-FU cells assessed as reduction in cell number at 0.05 uM after 24 hrs by Hoechst 33342 staining based fluorescent microscopic method; assay type: functional
# Bel7402/5-FU [7] = test: Induction of apoptosis in human Bel7402/5-FU cells assessed as morphological changes at 0.05 uM after 24 hrs by Hoechst 33342 staining based fluorescent microscopic method; assay type: functional, cell-based
# Bel7402/5-FU [8] = test: Induction of apoptosis in human Bel7402/5-FU cells assessed as condensed nuclei at 0.05 uM after 24 hrs by Hoechst 33342 staining based fluorescent microscopic method; assay type: functional, cell-based
# Bel7402/5-FU [9] = test: Induction of apoptosis in human Bel7402/5-FU cells at 0.05 uM after 24 hrs by Hoechst 33342 staining based fluorescent microscopic method; assay type: functional, cell-based
# Bel7402/5-FU [10] = test: Induction of apoptosis in human Bel7402/5-FU cells assessed as live cells at 0.05 uM after 48 hrs by Annexin V-APC/7-AAD staining based flow cytometry (reference value: 91.08%); assay type: functional
# Bel7402/5-FU [11] = test: Induction of apoptosis in human Bel7402/5-FU cells assessed as early apoptotic cells at 0.05 uM after 48 hrs by Annexin V-APC/7-AAD staining based flow cytometry (reference value: 5.24%); assay type: functional
# Bel7402/5-FU [12] = test: Induction of apoptosis in human Bel7402/5-FU cells assessed as late apoptotic cells at 0.05 uM after 48 hrs by Annexin V-APC/7-AAD staining based flow cytometry (reference value: 3%); assay type: functional
# Bel7402/5-FU [13] = test: Induction of apoptosis in human Bel7402/5-FU cells assessed as necrotic cells at 0.05 uM after 48 hrs by Annexin V-APC/7-AAD staining based flow cytometry (reference value: 0.58%); assay type: functional
# Bel7402/5-FU [14] = test: Induction of microtubule disruption in human Bel7402/5-FU cells at 0.05 uM after 24 to 48 hrs by DAPI staining based immunofluorescence microscopic method; assay type: functional, cell-based
# Bel7402/5-FU [15] = test: Reduction in microtubule density in human Bel7402/5-FU cells at 0.05 uM after 24 to 48 hrs by DAPI staining based immunofluorescence microscopic method; assay type: functional, cell-based
# Bel7402/5-FU [16] = test: Antimigratory activity in human Bel7402/5-FU cells at 0.05 uM after 24 hrs by wound healing assay; assay type: functional, cell-based
# Bel7402/5-FU [17] = test: Effect on CDK1 expression in human Bel7402/5-FU cells assessed as ratio of CDK1 to beta-actin level at 0.05 uM after 48 hrs by Western blot analysis (reference value: 0.33); assay type: functional
# Bel7402/5-FU [18] = test: Effect on CDK2 expression in human Bel7402/5-FU cells assessed as ratio of CDK2 to beta-actin level at 0.05 uM after 48 hrs by Western blot analysis (reference value: 0.43); assay type: functional
# Bel7402/5-FU [19] = test: Effect on cyclinA expression in human Bel7402/5-FU cells assessed as ratio of cyclinA to beta-actin level at 0.05 uM after 48 hrs by Western blot analysis (reference value: 0.39); assay type: functional
# Bel7402/5-FU [20] = test: Effect on cyclinB1 expression in human Bel7402/5-FU cells assessed as ratio of cyclinB1 to beta-actin level at 0.05 uM after 48 hrs by Western blot analysis (reference value: 0.53); assay type: functional
# Bel7402/5-FU [21] = test: Induction of apoptosis in human Bel7402/5-FU cells assessed as ratio of cleaved caspase-3 to beta-actin level at 0.05 uM after 48 hrs by Western blot analysis (reference value: 0.19); assay type: functional
# Bel7402/5-FU [22] = test: Induction of apoptosis in human Bel7402/5-FU cells assessed as ratio of cleaved caspase-8 to beta-actin level at 0.05 uM after 48 hrs by Western blot analysis (reference value: 0.17); assay type: functional
# Bel7402/5-FU [23] = test: Induction of apoptosis in human Bel7402/5-FU cells assessed as ratio of cleaved caspase-9 to beta-actin level at 0.05 uM after 48 hrs by Western blot analysis (reference value: 0.17); assay type: functional
# Bel7402/5-FU [24] = test: Induction of apoptosis in human Bel7402/5-FU cells assessed as ratio of cleaved PARP to beta-actin level at 0.05 uM after 48 hrs by Western blot analysis (reference value: 0.2); assay type: functional
# Bel7402/5-FU [25] = test: Effect on VEGFR2 expression in human Bel7402/5-FU cells assessed as ratio of VEGFR2 to beta-actin level at 0.05 uM after 48 hrs by Western blot analysis (reference value: 0.25); assay type: functional
# Bel7402/5-FU [26] = test: Effect on MMP2 expression in human Bel7402/5-FU cells assessed as ratio of MMP2 to beta-actin level at 0.05 uM after 48 hrs by Western blot analysis (reference value: 0.3); assay type: functional
# Bel7402/5-FU [27] = test: Effect on E-cadherin expression in human Bel7402/5-FU cells assessed as ratio of E-cadherin to beta-actin level at 0.05 uM after 48 hrs by Western blot analysis (reference value: 0.2); assay type: functional
# Bel7402/5-FU [28] = test: Effect on COX1 expression in human Bel7402/5-FU cells assessed as ratio of COX1 to beta-actin level at 0.05 uM after 48 hrs by Western blot analysis (reference value: 0.48); assay type: functional
# Bel7402/5-FU [29] = test: Effect on COX2 expression in human Bel7402/5-FU cells assessed as ratio of COX2 to beta-actin level at 0.05 uM after 48 hrs by Western blot analysis (reference value: 0.36); assay type: functional
# Bel7402/5-FU [30] = test: Effect on iNOS expression in human Bel7402/5-FU cells assessed as ratio of iNOS to beta-actin level at 0.05 uM after 48 hrs by Western blot analysis (reference value: 0.13); assay type: functional
# Bel7402/5-FU [31] = test: Effect on P-gp expression in human Bel7402/5-FU cells assessed as ratio of P-gp to beta-actin level at 0.05 uM after 48 hrs by Western blot analysis (reference value: 0.59); assay type: functional
# Bel7402/5-FU [32] = test: Effect on MRP1 expression in human Bel7402/5-FU cells assessed as ratio of MRP1 to beta-actin level at 0.05 uM after 48 hrs by Western blot analysis (reference value: 0.58); assay type: functional
# [33] = biological target: Mitogen-activated protein kinase; ERK1/ERK2 (Homo sapiens) (UniProt P27361+P28482); test: Effect on ERK1/2 phosphorylation in human Bel7402/5-FU cells assessed as ratio of phosphorylated ERK1/2 to beta-actin level at 0.05 uM after 48 hrs by Western blot analysis (reference value: 0.59); assay type: cell-based
# Chain of Mitogen-activated protein kinase; ERK1/ERK2 (Homo sapiens) (P27361 whole entry, looked up): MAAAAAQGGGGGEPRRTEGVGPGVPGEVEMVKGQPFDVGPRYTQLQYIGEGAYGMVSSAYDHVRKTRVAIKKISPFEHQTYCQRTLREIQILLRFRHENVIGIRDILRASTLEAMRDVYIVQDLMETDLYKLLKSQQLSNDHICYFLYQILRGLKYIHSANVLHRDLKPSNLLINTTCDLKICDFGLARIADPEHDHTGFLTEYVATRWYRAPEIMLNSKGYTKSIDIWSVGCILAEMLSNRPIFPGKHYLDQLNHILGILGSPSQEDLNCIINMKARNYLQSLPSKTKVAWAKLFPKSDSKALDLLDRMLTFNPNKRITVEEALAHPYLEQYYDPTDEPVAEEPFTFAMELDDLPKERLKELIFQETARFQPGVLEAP
# Chain of Mitogen-activated protein kinase; ERK1/ERK2 (Homo sapiens) (P28482 whole entry, looked up): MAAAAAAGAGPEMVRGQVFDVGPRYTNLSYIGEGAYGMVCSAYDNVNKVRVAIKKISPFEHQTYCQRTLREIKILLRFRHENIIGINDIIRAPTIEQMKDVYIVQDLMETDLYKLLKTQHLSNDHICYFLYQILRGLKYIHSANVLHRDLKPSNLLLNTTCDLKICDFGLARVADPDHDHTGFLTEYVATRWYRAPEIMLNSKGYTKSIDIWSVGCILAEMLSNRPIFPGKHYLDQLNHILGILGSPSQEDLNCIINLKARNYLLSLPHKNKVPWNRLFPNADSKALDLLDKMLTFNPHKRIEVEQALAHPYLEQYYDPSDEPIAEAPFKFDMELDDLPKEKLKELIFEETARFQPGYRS
# [34] = biological target: Signal transducer and activator of transcription 3 (Homo sapiens) (UniProt P40763); test: Effect on STAT3 phosphorylation in human Bel7402/5-FU cells assessed as ratio of phosphorylated STAT3 to beta-actin level at 0.05 uM after 48 hrs by Western blot analysis (reference value: 0.3); assay type: cell-based
# Chain of Signal transducer and activator of transcription 3 (Homo sapiens) (P40763 whole entry): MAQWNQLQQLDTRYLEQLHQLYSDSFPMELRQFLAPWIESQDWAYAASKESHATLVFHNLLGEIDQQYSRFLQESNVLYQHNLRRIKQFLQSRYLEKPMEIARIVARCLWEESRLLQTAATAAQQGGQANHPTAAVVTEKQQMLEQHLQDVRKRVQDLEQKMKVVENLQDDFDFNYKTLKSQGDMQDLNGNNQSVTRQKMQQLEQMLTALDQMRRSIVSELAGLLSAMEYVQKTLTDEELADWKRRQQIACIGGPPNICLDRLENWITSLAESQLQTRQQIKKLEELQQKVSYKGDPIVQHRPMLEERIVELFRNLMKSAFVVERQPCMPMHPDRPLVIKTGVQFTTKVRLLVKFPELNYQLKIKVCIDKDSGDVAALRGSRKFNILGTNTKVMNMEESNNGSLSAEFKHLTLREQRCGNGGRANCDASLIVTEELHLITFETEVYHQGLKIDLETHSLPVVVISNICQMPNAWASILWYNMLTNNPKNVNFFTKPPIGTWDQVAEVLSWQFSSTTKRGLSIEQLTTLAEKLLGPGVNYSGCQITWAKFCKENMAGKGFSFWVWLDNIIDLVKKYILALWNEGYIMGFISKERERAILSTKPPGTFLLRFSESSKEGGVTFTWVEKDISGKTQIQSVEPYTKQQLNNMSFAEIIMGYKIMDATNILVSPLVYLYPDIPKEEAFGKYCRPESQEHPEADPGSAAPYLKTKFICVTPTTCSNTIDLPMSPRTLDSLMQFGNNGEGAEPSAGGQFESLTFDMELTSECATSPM
# [35] = biological target: RAC-alpha serine/threonine-protein kinase (Homo sapiens) (UniProt P31749); test: Effect on AKT phosphorylation in human Bel7402/5-FU cells assessed as ratio of phosphorylated AKT to beta-actin level at 0.05 uM after 48 hrs by Western blot analysis (reference value: 0.39); assay type: cell-based
# Chain of RAC-alpha serine/threonine-protein kinase (Homo sapiens) (P31749 whole entry): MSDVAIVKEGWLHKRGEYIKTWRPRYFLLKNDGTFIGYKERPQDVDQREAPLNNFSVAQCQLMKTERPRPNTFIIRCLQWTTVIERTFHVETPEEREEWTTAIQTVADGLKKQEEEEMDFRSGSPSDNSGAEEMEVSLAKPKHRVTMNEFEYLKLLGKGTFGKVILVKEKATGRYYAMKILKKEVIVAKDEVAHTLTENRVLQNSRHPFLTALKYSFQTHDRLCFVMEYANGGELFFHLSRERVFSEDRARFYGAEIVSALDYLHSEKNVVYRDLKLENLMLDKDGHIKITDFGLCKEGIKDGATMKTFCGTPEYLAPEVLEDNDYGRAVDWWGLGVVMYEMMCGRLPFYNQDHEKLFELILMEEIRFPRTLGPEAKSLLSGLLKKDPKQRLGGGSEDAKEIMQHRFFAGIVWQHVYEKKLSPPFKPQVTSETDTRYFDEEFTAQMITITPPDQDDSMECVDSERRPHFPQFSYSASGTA
smiles,measurement,setting,value
COc1cc([C@@H]2c3cc4c(cc3[C@H](O)[C@H]3COC(=O)[C@H]23)OCO4)cc(OC)c1OC [PODOFILOX],IC50,Bel-7402,52 nM
same,IC50,Bel7402/5-FU [1],44 nM
same,IC50,L02,22 nM
same,Ratio IC50,[2],0.84
same,Activity,Bel7402/5-FU [3],17.28%
same,Activity,Bel7402/5-FU [4],9.1%
same,Activity,Bel7402/5-FU [5],73.62%
same,Activity,Bel7402/5-FU [6],Active
same,Activity,Bel7402/5-FU [7],Active
same,Activity,Bel7402/5-FU [8],Active
same,Activity,Bel7402/5-FU [9],Active
same,Activity,Bel7402/5-FU [10],63.7%
same,Activity,Bel7402/5-FU [11],8.48%
same,Activity,Bel7402/5-FU [12],23.17%
same,Activity,Bel7402/5-FU [13],4.65%
same,Activity,Bel7402/5-FU [14],Active
same,Activity,Bel7402/5-FU [15],Active
same,Activity,Bel7402/5-FU [16],Active
same,Ratio,Bel7402/5-FU [17],0.33
same,Ratio,Bel7402/5-FU [18],0.29
same,Ratio,Bel7402/5-FU [19],0.27
same,Ratio,Bel7402/5-FU [20],0.41
same,Ratio,Bel7402/5-FU [21],0.27
same,Ratio,Bel7402/5-FU [22],0.26
same,Ratio,Bel7402/5-FU [23],0.26
same,Ratio,Bel7402/5-FU [24],0.38
same,Ratio,Bel7402/5-FU [25],0.22
same,Ratio,Bel7402/5-FU [26],0.13
same,Ratio,Bel7402/5-FU [27],0.28
same,Ratio,Bel7402/5-FU [28],0.43
same,Ratio,Bel7402/5-FU [29],0.39
same,Ratio,Bel7402/5-FU [30],0.18
same,Ratio,Bel7402/5-FU [31],0.49
same,Ratio,Bel7402/5-FU [32],0.52
same,Ratio,[33],0.38
same,Ratio,[34],0.41
same,Ratio,[35],0.35
